Patent publication US20240174690A1, “ANNULATED 2-AMINO-3-CYANO THIOPHENES AND DERIVATIVES FOR THE TREATMENT OF CANCER” (BOEHRINGER INGELHEIM INTERNATIONAL GMBH, priority 2021, published 2024)

How the values were obtained:
[1] = biological target: KRAS (G12C)::SOS1 (Homo sapiens (Human), UniProt P01116, C118S/C51S/C80L/G12C); experiment: KRAS::SOS1 AlphaScreen binding assay, KRAS G12C
How it was run: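 Compounds (up to 100 μM, eleven fivefold dilutions in duplicate) were incubated 30 min with KRAS 1-169 (10 nM, or 7.5 nM for G12C), GST-SOS1 564-1049 (5 nM for G12D/G12C, 10 nM for others) and 10 μM GDP in PBS buffer with BSA and Tween. Donor/acceptor beads were then added for 60 min at room temperature, and IC50 came from a 4-parameter fit of the AlphaScreen signal.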

[2] = system: KRAS G12V-dependent Ba/F3 cells; experiment: Ba/F3 proliferation assay, KRAS G12V; assay type: cell-based; conditions: AlamarBlue;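 note: proliferation IC50 in KRAS G12V-dependent Ba/F3 cells read by AlamarBlue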
How it was run: (§1)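 IL-3-independent Ba/F3 lines driven by transduced KRAS G12C, G12D or G12V, with puromycin withdrawn about ten days before testing. Viability after compound treatment measured by AlamarBlue fluorescence in duplicate, and values derived by curve fitting.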

[3] = system: KRAS G12D-dependent Ba/F3 cells; experiment: Ba/F3 proliferation assay, KRAS G12D; assay type: cell-based; conditions: AlamarBlue
How it was run: as §1

[4] = system: SK-CO-1 cells; experiment: SK-CO-1 CTG proliferation assay (120 h) (CRC, G12V); assay type: cell-based; conditions: SK-CO-1 cells (CRC, G12V), CTG 120 h
How it was run: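 Compound exposure lasted 120 h in KRAS G12V SK-CO-1 cells seeded overnight at 500 cells/well in 10% FCS EMEM. CellTiter-Glo RLU normalised to DMSO wells gave percent viability, and a four-parameter model fit yielded IC50.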

Chain of KRAS (G12C)::SOS1 (P01116 other isoform, or with tags, fused parts or gaps G12C/C51S/C80L/C118S): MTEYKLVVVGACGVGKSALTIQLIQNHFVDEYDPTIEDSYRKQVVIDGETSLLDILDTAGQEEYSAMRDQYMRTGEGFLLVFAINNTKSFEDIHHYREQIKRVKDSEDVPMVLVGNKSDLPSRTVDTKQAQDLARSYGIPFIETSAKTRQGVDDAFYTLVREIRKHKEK

Structure (SMILES)	IC50 [1] [nM]	IC50 ([2]; Mus musculus, BaF3, 72 h) [nM]	IC50 ([3]; Mus musculus, BaF3, 72 h) [nM]	IC50 ([4]; Homo sapiens) [nM]	IC50 ([2]; 72 h) [nM]	IC50 ([3]; 72 h) [nM]	IC50 [4] [nM]
C[C@H](Oc1cc(Cl)nc(-c2onc3c2CCC[C@@]32CCCc3sc(N)c(C#N)c32)n1)[C@@H]1CCCN1C [I-1]	2	43	178	418			
C[C@H](Oc1nc(-c2onc3c2CCC[C@@]32CCCc3sc(N)c(C#N)c32)cc(N2CCNC3(CC3)C2)n1)[C@@H]1CCCN1C [I-2]	45		124				
C[C@H](Oc1cc(N2CCNC3(CCC3)C2)nc(-c2onc3c2CCC[C@@]32CCCc3sc(N)c(C#N)c32)n1)[C@@H]1CCCN1C [I-3]	3	351	5	2090			
C[C@H](Oc1cc(N2CCNC3(COC3)C2)nc(-c2onc3c2CCC[C@@]32CCCc3sc(N)c(C#N)c32)n1)[C@@H]1CCCN1C [I-4]	2	134	9	541			
C[C@H](Oc1cc(-n2ccnc2)nc(-c2onc3c2CCC[C@@]32CCCc3sc(N)c(C#N)c32)n1)[C@@H]1CCCN1C [I-20]	2	10	30	185			
C[C@H](Oc1cc(-c2ccn(C)n2)nc(-c2onc3c2CCC[C@@]32CCCc3sc(N)c(C#N)c32)n1)[C@@H]1CCCN1C [I-21]	2				6	14	30
C[C@H](Oc1cc([C@@H]2CCOC2)nc(-c2onc3c2CCC[C@@]32CCCc3sc(N)c(C#N)c32)n1)[C@@H]1CCCN1C [I-22]	2	9	14	20			
CO[C@@H]1C[C@@H]([C@H](C)Oc2cc(-c3ccn(C)n3)nc(-c3onc4c3CCC[C@@]43CCCc4sc(N)c(C#N)c43)n2)N(C)C1 [I-23]	3	7	27	139			
Cc1nc(-c2cc(O[C@@H](C)[C@@H]3CCCN3C)nc(-c3onc4c3CCC[C@@]43CCCc4sc(N)c(C#N)c43)n2)cs1 [I-24]	2	5	24	67			
C[C@H](Oc1cc(-c2ccc(N)nc2)nc(-c2onc3c2CCC[C@@]32CCCc3sc(N)c(C#N)c32)n1)[C@@H]1CCCN1C [I-25]	2	57	261	357			
C[C@H](Oc1cc(-c2ccn(CC(C)(C)O)n2)nc(-c2onc3c2CCC[C@@]32CCCc3sc(N)c(C#N)c32)n1)[C@@H]1CCCN1C [I-26]	2	13	48	118			
C[C@H](Oc1cc(-c2cnsc2)nc(-c2onc3c2CCC[C@@]32CCCc3sc(N)c(C#N)c32)n1)[C@@H]1CCCN1C [I-27]	2	7	64	52			
Cc1ccc(-c2cc(O[C@@H](C)[C@@H]3CCCN3C)nc(-c3onc4c3CCC[C@@]43CCCc4sc(N)c(C#N)c43)n2)cn1 [I-28]	3	41	250	131			
C[C@H](Oc1cc(-n2nccn2)nc(-c2onc3c2CCC[C@@]32CCCc3sc(N)c(C#N)c32)n1)[C@@H]1CCCN1C [I-29]	3	15	71	381			
C[C@H](Oc1cc(-c2ccn(C[C@@H](C)O)n2)nc(-c2onc3c2CCC[C@@]32CCCc3sc(N)c(C#N)c32)n1)[C@@H]1CCCN1C [I-30]	2	8	42	31			
C[C@H](O)Cn1ccc(-c2cc(O[C@@H](C)[C@@H]3CCCN3C)nc(-c3onc4c3CCC[C@@]43CCCc4sc(N)c(C#N)c43)n2)n1 [I-31]	2	9	43				
C[C@H](Oc1cc(-n2ccnn2)nc(-c2onc3c2CCC[C@@]32CCCc3sc(N)c(C#N)c32)n1)[C@@H]1CCCN1C [I-32]	2	3	14	111			
C[C@H](Oc1cc(-c2ccn3ncnc3c2)nc(-c2onc3c2CCC[C@@]32CCCc3sc(N)c(C#N)c32)n1)[C@@H]1CCCN1C [I-33]	2	14	81	181			
C[C@H](Oc1cc(-c2ccn(C3COC3)n2)nc(-c2onc3c2CCC[C@@]32CCCc3sc(N)c(C#N)c32)n1)[C@@H]1CCCN1C [I-34]	2	14	38	84			

Structure (SMILES)	IC50 [1] [nM]	IC50 ([2]; Mus musculus, BaF3, 72 h) [nM]	IC50 ([3]; Mus musculus, BaF3, 72 h) [nM]	IC50 ([4]; Homo sapiens) [nM]	IC50 ([2]; 72 h) [nM]	IC50 ([3]; 72 h) [nM]	IC50 [4] [nM]
C[C@H](Oc1cc(N2CCN(C)C3(COC3)C2)nc(-c2onc3c2CCC[C@@]32CCCc3sc(N)c(C#N)c32)n1)[C@@H]1C[C@@H](F)CN1C [I-37]	2	1340	78	1080			
C[C@H](Oc1cc(N2CCN(C)C3(CC3)C2)nc(-c2onc3c2CCC[C@@]32CCCc3sc(N)c(C#N)c32)n1)[C@@H]1C[C@@H](F)CN1C [I-39]	10	895	34	2070			
C[C@H](Oc1nc(-c2onc3c2CCC[C@@]32CCCc3sc(N)c(C#N)c32)cc(N2CCN(C)C3(CC3)C2)n1)[C@@H]1CCCN1C [I-40]	88		243				
C[C@H](Oc1cc(N2CCN(C)C3(CC3)C2)nc(-c2onc3c2CCC[C@@]32CCCc3sc(N)c(C#N)c32)n1)[C@@H]1CCCN1C [I-41]	6	445	11	2760			
C[C@H]1CN(C)CCCN1c1nc(-c2onc3c2CCC[C@@]32CCCc3sc(N)c(C#N)c32)cc(N2CCN(C)C3(CC3)C2)n1 [I-42]	606		440				
C[C@H](Oc1cc(N2C[C@H](C)N(C)[C@@H](C)C2)nc(-c2onc3c2CCC[C@@]32CCCc3sc(N)c(C#N)c32)n1)[C@@H]1CCCN1C [I-43]	6	302	63	892			
C[C@H](Oc1cc(N2CCN(C)C3(CCC3)C2)nc(-c2onc3c2CCC[C@@]32CCCc3sc(N)c(C#N)c32)n1)[C@@H]1CCCN1C [I-44]	13	1050	91	1210			
C[C@H](Oc1cc(N2CCNC3(CC3)C2)nc(-c2onc3c2CCC[C@@]32CCCc3sc(N)c(C#N)c32)n1)[C@@H]1C[C@@H](F)CN1C [I-45]	4	453	11	763			
CO[C@H]1CCN(C)[C@@H]1[C@H](C)Oc1cc(-n2ccc(CC(=O)NC(C)C)n2)nc(-c2onc3c2CCC[C@@]32CCCc3sc(N)c(C#N)c32)n1 [I-48]	2	4	24	14			
CO[C@H]1CCN(C)[C@@H]1[C@H](C)Oc1cc(N2CCNC3(CC3)C2)nc(-c2onc3c2CCC[C@@]32CCCc3sc(N)c(C#N)c32)n1 [I-49]	3	184	3	515			
CO[C@@H]1C[C@@H]([C@H](C)Oc2cc(N3CCN(C)C4(CC4)C3)nc(-c3onc4c3CCC[C@@]43CCCc4sc(N)c(C#N)c43)n2)N(C)C1 [I-50]	5	811	41	2050			
CO[C@H]1CCN(C)[C@@H]1[C@H](C)Oc1cc(-n2ccc(C(=O)N[C@@H]3CCOC3)n2)nc(-c2onc3c2CCC[C@@]32CCCc3sc(N)c(C#N)c32)n1 [I-53]	1	1	12	7			
CO[C@H]1CCN(C)[C@@H]1[C@H](C)Oc1cc(-n2ccc(C(=O)N[C@H]3CCOC3)n2)nc(-c2onc3c2CCC[C@@]32CCCc3sc(N)c(C#N)c32)n1 [I-54]	1	1	7	7			
COCCNC(=O)c1ccn(-c2cc(O[C@@H](C)[C@@H]3[C@@H](OC)CCN3C)nc(-c3onc4c3CCC[C@@]43CCCc4sc(N)c(C#N)c43)n2)n1 [I-55]	1	1	12	9			
C[C@H](Oc1cc(-n2ccc(C(=O)N[C@@H]3CCOC3)n2)nc(-c2onc3c2CCC[C@@]32CCCc3sc(N)c(C#N)c32)n1)[C@@H]1CCCN1C [I-56]	2	4	16	8			
C[C@H]1CN(C)CCCN1c1cc(N2CCN(C)CC2)nc(-c2noc3c2CCC[C@@]32CCCc3sc(N)c(C#N)c32)n1 [II-30]	19		273	9070			
C[C@H](Oc1cc(N2CCN(C)CC2)nc(-c2noc3c2CCC[C@@]32CCCc3sc(N)c(C#N)c32)n1)[C@@H]1CCCN1[C@@H]1CCOC1 [II-39]	6		68	1240			
C[C@H](Oc1nc(-c2noc3c2CCC[C@@]32CCCc3sc(N)c(C#N)c32)cc(N2C[C@H](C)N[C@@H](C)C2)n1)[C@@H]1CCCN1C [II-46]	37		116	655			
C[C@H](Oc1cc(-n2ccsc2=O)nc(-c2noc3c2CCC[C@@]32CCCc3sc(N)c(C#N)c32)n1)[C@@H]1CCCN1C [II-135]		4	1040	29			
